Counter-ions that a name gives are not always drawn.
`CC1(C)C[C@@H](c2ccccc2)Nc2c(C(=O)NC34CC5CC(CC(C5)C3)C4)cnn21` [Example 1029, (5S)-N-1-adamantyl-7,7-dimethyl-5-phenyl-4,5,6,7-tetrahydropyrazolo[1,5-a]pyrimidine-3-carboxamide] showed a melting point of 226 to 227 °C.

For `COc1cccc(C2CC(C)(C)n3nc(C)c(C(=O)O)c3N2)c1` (stereo not shown) [Example 947, 5-(3-methoxyphenyl)-2,7,7-trimethyl-4,5,6,7-tetrahydropyrazolo[1,5-a]pyrimidine-3-carboxylic acid], the melting point was 151 to 152 °C.

In the case of `CC1(C)CC(c2ccccc2)Nc2c(C(=O)NC3(C(N)=O)CCCCC3)cnn21` (stereo not shown) [Example 626, N-(1-(aminocarbonyl)cyclohexyl)-7,7-dimethyl-5-phenyl-4,5,6,7-tetrahydropyrazolo[1,5-a]pyrimidine-3-carboxamide], the melting point was 140 to 141 °C.

Compound `Cc1ccc(C(C)(C)NC(=O)c2c(C)nn3c2NC(c2ccccc2)CC3(C)C)cc1` (stereo not shown) (as salt: HCl) [Example 794, 2,7,7-trimethyl-N-(1-methyl-1-(4-methylphenyl)ethyl)-5-phenyl-4,5,6,7-tetrahydropyrazolo[1,5-a]pyrimidine-3-carboxamide] has a melting point of 193 to 194 °C.

`CCC(CC)(NC(=O)c1cnn2c1NC(c1ccccc1)CC2(C)C)c1ccc(-c2cccnc2)cc1` (stereo not shown) (as salt: HCl) [Example 583, N-(1-ethyl-1-(4-(3-pyridinyl)phenyl)propyl)-7,7-dimethyl-5-phenyl-4,5,6,7-tetrahydropyrazolo[1,5-a]pyrimidine-3-carboxamide] gave a melting point of 168 to 169 °C.

With `CCC(CC)(NC(=O)c1cnn2c1NC(c1ccccc1)CC2(C)C)c1ccc(OCC(=O)O)cc1` (stereo not shown) [Example 731, (4-(1-(((7,7-dimethyl-5-phenyl-4,5,6,7-tetrahydropyrazolo[1,5-a]pyrimidin-3-yl)carbonyl)amino)-1-ethylpropyl)phenoxy)acetic acid] the melting point was 213 to 214 °C.

With `CCC(CC)(NC(=O)c1cnn2c1NC(c1ccccc1F)CC2(C)C)c1ccc(C(F)(F)F)cc1` (stereo not shown) [Example 675, N-(1-ethyl-1-(4-(trifluoromethyl)phenyl)propyl)-5-(2-fluorophenyl)-7,7-dimethyl-4,5,6,7-tetrahydropyrazolo[1,5-a]pyrimidine-3-carboxamide] the melting point was 200.9 to 201 °C.

Compound `CCC(CC)(NC(=O)c1c(C)nn2c1N[C@@H](c1ccccc1)CC2(C)C)c1ccc(Cl)cc1` (as salt: HCl) [Example 1043, (5R)-N-(1-(4-chlorophenyl)-1-ethylpropyl)-2,7,7-trimethyl-5-phenyl-4,5,6,7-tetrahydropyrazolo[1,5-a]pyrimidine-3-carboxamide] has a melting point of 193 to 194 °C.

Compound `CCC(CC)(NC(=O)c1cnn2c1NC(c1ccccc1)CC2(CC)CC)c1ccc(C(F)(F)F)cc1` (stereo not shown) [Example 185, 7,7-diethyl-N-(1-ethyl-1-(4-(trifluoromethyl)phenyl)propyl)-5-phenyl-4,5,6,7-tetrahydropyrazolo[1,5-a]pyrimidine-3-carboxamide] has a melting point of 174 to 175 °C.

Work on `CC1(C)CC(c2ccccc2Cl)Nc2c(C(=O)O)cnn21` (stereo not shown) [Example 940, 5-(2-chlorophenyl)-7,7-dimethyl-4,5,6,7-tetrahydropyrazolo[1,5-a]pyrimidine-3-carboxylic acid] yielded a melting point of 167 to 168 °C.

Work on `CCC(CC)(NC(=O)c1c(C)nn2c1NC(c1ccccc1C)CC2(C)C)c1ccc(C)cc1` (stereo not shown) (as salt: HCl) [Example 782, N-(1-ethyl-1-(4-methylphenyl)propyl)-2,7,7-trimethyl-5-(2-methylphenyl)-4,5,6,7-tetrahydropyrazolo[1,5-a]pyrimidine-3-carboxamide] yielded a melting point of 187 to 188 °C.

With `CCCCOC(=O)c1ccc(C(CC)(CC)NC(=O)c2cnn3c2NC(c2ccccc2)CC3(C)C)cc1` (stereo not shown) [Example 757, butyl 4-(1-(((7,7-dimethyl-5-phenyl-4,5,6,7-tetrahydropyrazolo[1,5-a]pyrimidin-3-yl)carbonyl)amino)-1-ethylpropyl)benzoate] the melting point was 139 to 140 °C.

With `CCC(C#N)NC(=O)c1cnn2c1N[C@H](c1ccccc1)C[C@@H]2C(F)(F)F` (stereo in doubt) [Example 283, N-(1-cyanopropyl)-5-phenyl-7-(trifluoromethyl)-4,5,6,7-tetrahydropyrazolo[1,5-a]pyrimidine-3-carboxamide] the melting point was 180 to 181 °C.

Work on `CCC1(NC(=O)c2cnn3c2NC(c2ccccc2)CC3(C)C)CCC(C)CC1` (stereo not shown) [Example 612, N-(1-ethyl-4-methylcyclohexyl)-7,7-dimethyl-5-phenyl-4,5,6,7-tetrahydropyrazolo[1,5-a]pyrimidine-3-carboxamide] yielded a melting point of 160 to 161 °C.

Work on `CC1(C)CC(c2ccccc2)Nc2c(C(=O)NC34CC5CC(CC(C5)C3)C4)cnn21` (stereo not shown) [Example 374, N-(1-adamantyl)-7,7-dimethyl-5-phenyl-4,5,6,7-tetrahydropyrazolo[1,5-a]pyrimidine-3-carboxamide] yielded a melting point of 235 to 236 °C.

Work on `CCC1(CC)C[C@@H](OCc2ccccc2)CN1C(=O)c1cnn2c1N[C@H](c1ccccc1)CC2(C)C` [Example 1105, (5S)-3-(((4R)-4-(benzyloxy)-2,2-diethyl-1-pyrrolidinyl)carbonyl)-7,7-dimethyl-5-phenyl-4,5,6,7-tetrahydropyrazolo[1,5-a]pyrimidine] yielded a melting point of 172 to 174 °C.

`CCC(CC)(NC(=O)c1cnn2c1NC(c1ccccc1Cl)CC2(C)C)c1ccc(C)cc1` (stereo not shown) (as salt: HCl) [Example 961, 5-(2-chlorophenyl)-N-[1-ethyl-1-(4-methylphenyl)propyl]-7,7-dimethyl-4,5,6,7-tetrahydropyrazolo[1,5-a]pyrimidine-3-carboxamide] showed a melting point of 128 to 130 °C.

In the case of `CCC(CC)(Cc1ccc(OC)cc1)NC(=O)c1cnn2c1NC(c1ccccc1)CC2(C)C` (stereo not shown) [Example 704, N-(1-ethyl-1-(4-methoxybenzyl)propyl)-7,7-dimethyl-5-phenyl-4,5,6,7-tetrahydropyrazolo[1,5-a]pyrimidine-3-carboxamide], the melting point was 185 to 186 °C.

In the case of `CCC(CC)(NC(=O)c1cnn2c1NC(c1ccccc1OC)CC2(C)C)c1ccc(C(F)(F)F)cc1` (stereo not shown) [Example 590, N-(1-ethyl-1-(4-(trifluoromethyl)phenyl)propyl)-5-(2-methoxyphenyl)-7,7-dimethyl-4,5,6,7-tetrahydropyrazolo[1,5-a]pyrimidine-3-carboxamide], the melting point was 211 to 213 °C.

With `COc1ccccc1C1CC(C(F)(F)F)n2ncc(C(=O)NC34CC5CC(CC(C5)C3)C4)c2N1` (stereo not shown) [Example 279, N-(1-adamantyl)-5-(2-methoxyphenyl)-7-(trifluoromethyl)-4,5,6,7-tetrahydropyrazolo[1,5-a]pyrimidine-3-carboxamide] the melting point was 238 to 239 °C.

In the case of `CCC(CC)(NC(=O)c1c(C)nn2c1N[C@@H](c1ccccc1)CC2(C)C)c1ccc(C)c(Cl)c1` (as salt: HCl) [Example 1069, (5R)-N-(1-(3-chloro-4-methylphenyl)-1-ethylpropyl)-2,7,7-trimethyl-5-phenyl-4,5,6,7-tetrahydropyrazolo[1,5-a]pyrimidine-3-carboxamide], the melting point was 129 to 130 °C.

For `O=C(O)c1cnn2c1NC(c1cccc(Cl)c1)CC2C(F)(F)F` (stereo not shown) [Example 33, 5-(3-chlorophenyl)-7-(trifluoromethyl)-4,5,6,7-tetrahydropyrazolo[1,5-a]pyrimidine-3-carboxylic acid], the melting point was 194 to 195 °C.

In the case of `CCC1(CC)C[C@@H](OC)CN1C(=O)c1c(C)nn2c1N[C@@H](c1ccccc1)CC2(C)C` [Example 1099, (5R)-3-(((4R)-2,2-diethyl-4-methoxy-1-pyrralidinyl)carbanyl)-2,7,7-trimethyl-5-phenyl-4,5,6,7-tetrahydropyrazolo[1,5-a]pyrimidine], the melting point was 132 to 134 °C.

`CC(C)[C@H]1CC[C@H](C)CC1OC(=O)c1cnn2c1NC(c1ccccc1)CC2(C)C` (stereo partly drawn) [Example 1140, (2R,5S)-2-isopropyl-5-methylcyclohexyl 7,7-dimethyl-5-phenyl-4,5,6,7-tetrahydropyrazolo[1,5-a]pyrimidine-3-carboxylate] showed a melting point of 123 to 124 °C.

Work on `CC(C)(NC(=O)c1cnn2c1NC(c1ccccc1)CC2(C)C)c1ccc(Cl)cc1` (stereo not shown) (as salt: HCl) [Example 791, N-(1-(4-chlorophenyl)-1-methylethyl)-7,7-dimethyl-5-phenyl-4,5,6,7-tetrahydropyrazolo[1,5-a]pyrimidine-3-carboxamide] yielded a melting point of 207 to 208 °C.

`CCC(CC)(NC(=O)c1c(C)nn2c1NC(c1ccc(OC)cc1)CC2(C)C)c1ccc(C)cc1` (stereo not shown) (as salt: HCl) [Example 967, N-(1-ethyl-1-(4-methylphenyl)propyl)-5-(4-methoxyphenyl)-2,7,7-trimethyl-4,5,6,7-tetrahydropyrazolo[1,5-a]pyrimidine-3-carboxamide] showed a melting point of 153 to 154 °C.

For `CCC(CC)(NC(=O)c1cnn2c1NC(c1ccccc1)CC2(C)C)c1ccc(SC)cc1` (stereo not shown) [Example 832, N-(1-ethyl-1-(4-(methylthio)phenyl)propyl)-7,7-dimethyl-5-phenyl-4,5,6,7-tetrahydropyrazolo[1,5-a]pyrimidine-3-carboxamide], the melting point was 177 to 178 °C.

Compound `CCOC(=O)c1cnn2c1NC(c1ccc(OC)cc1)CC2C(F)(F)F` (stereo not shown) [Example 3, ethyl 5-(4-methoxyphenyl)-7-(trifluoromethyl)-4,5,6,7-tetrahydropyrazolo[1,5-a]pyrimidine-3-carboxylate] has a melting point of 105 to 109 °C.

In the case of `CCC(CC)(NC(=O)c1c(C)nn2c1NC(c1ccccc1)CC2(C)C)c1ccc(C(C)=O)cc1` (stereo not shown) [Example 977, N-(1-(4-acetylphenyl)-1-ethylpropyl)-2,7,7-trimethyl-5-phenyl-4,5,6,7-tetrahydropyrazolo[1,5-a]pyrimidine-3-carboxamide], the melting point was 200 to 202 °C.

`O=C(CNC(=O)c1cnn2c1N[C@H](c1ccccc1)C[C@@H]2C(F)(F)F)c1ccccc1Cl` (stereo in doubt) [Example 289, N-(2-(2-chlorophenyl)-2-oxoethyl)-5-phenyl-7-(trifluoromethyl)-4,5,6,7-tetrahydropyrazolo[1,5-a]pyrimidine-3-carboxamide] gave a melting point of 154 to 155 °C.

`Cc1nn2c(c1C(=O)O)NC(c1ccc(F)cc1)CC2(C)C` (stereo not shown) [Example 948, 5-(4-fluorophenyl)-2,7,7-trimethyl-4,5,6,7-tetrahydropyrazolo[1,5-a]pyrimidine-3-carboxylic acid] gave a melting point of 173 to 174 °C.
